Experiment in all cases: DTP human tumour cell line panel, 48 h
In experiment [1] the test system is A549 NSCLC.
Experiment [2] relates to SNB-75 CNS.
Experiment [3] relates to PC-3 prostate.
Experiment [4] has as its system IGROV1 ovarian.
In experiment [5] the test system is SW-620 colon.
In experiment [6] the test system is MALME-3M melanoma.
The test system of experiment [7] is NCI-H23 lung.
Experiment [8] concerns MDA-MB-435.
For experiment [9], the system named is NCI/ADR-RES ovarian.
For experiment [10], the system named is HT29 colon.
The subject of experiment [11] is 786-0 renal.
For experiment [12], the system named is MDA-N.
For experiment [13], the system named is SN12C renal.
Experiment [14] deals with NCI-H226 lung.
Experiment [15] relates to NCI-H522 lung.
Experiment [16] relates to COLO 205 colon.
Experiment [17] deals with LOX IMVI melanoma.
Experiment [18] relates to MOLT-4 leukemia.
Experiment [19] deals with HL-60(TB) leukemia.
For experiment [20], the system named is CCRF-CEM leukemia.

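96-well plates; 48 h exposure; 5 concentrations. Endpoints by linear interpolation between flanking doses. Not reached: highest tested concentration assigned. TGI marks complete inhibition of growth.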

The TGI is the concentration giving total growth inhibition. `C/C(CC/C(C)=N/O)=N\O`: the TGI in experiment [1], in experiment [2], in experiment [3], in experiment [4], in experiment [5] and in experiment [6] was more than 100 µM throughout. Further, the TGI in experiment [7], in experiment [8], in [9], in [10], in [11] and in experiment [12] was more than 100 µM each time. Besides, the TGI in [13], in experiment [14], in [15], in [16], in experiment [17] and in experiment [18] was more than 100 µM throughout. For the same molecule, the TGI in experiment [19] was more than 100 µM.
For `COC(=O)c1c2c(cc3c1CC1(Cc4cc5c(c(C=O)c4C1)CCCC5)C3)CCCC2` (configuration not stated), the TGI in experiment [1], in experiment [3], in experiment [4], in experiment [6], in experiment [7] and in [8] was more than 100 µM each time. For the same molecule, the concentration for total growth inhibition (TGI) in experiment [9], in [10], in experiment [11], in experiment [12], in [13] and in experiment [14] was more than 100 µM each time. Further, the TGI in experiment [15] was more than 100 µM; in experiment [16] it was 36.6 µM; in experiment [17], more than 100 µM; in [18], more than 100 µM; in experiment [19], 59.9 µM.
`CCCCCCCC1C(C)c2c([nH]c3ccccc23)C2C(=O)N(c3ccc(OC)cc3)C(=O)C21` (configuration not stated): the TGI in [1] is 5.33 µM; in [2], 3.91 µM; in experiment [3] it was more than 10 µM; in [4], more than 10 µM; in experiment [5], more than 8.94 µM; in experiment [6], more than 10 µM. Besides, the TGI is 6.99 µM in [7]; more than 8.39 µM in [8]; 3.02 µM in [9]; more than 7.4 µM in [10]; 3.28 µM in experiment [11]; more than 10 µM in experiment [12]. Moreover, the TGI in experiment [13] is more than 5.95 µM; in experiment [14], more than 8.21 µM; in experiment [20] it was more than 6.6 µM; in experiment [15], more than 10 µM; in experiment [16], more than 10 µM; in experiment [18], more than 10 µM. For the same molecule, the TGI in experiment [19] is 3.73 µM.
For the molecule `CCCCCC(C)(C)CCC(=O)OC1OC(COC2OC(COC3OC(CO)C(O)C(O)C3O)C(O)C(O)C2O)C(O)C(O)C1O` (configuration not stated), the TGI in experiment [1], in experiment [3], in experiment [4], in experiment [5], in experiment [6] and in [7] was more than 100 µM in each case. Also, the TGI in experiment [8], in [9], in experiment [10], in experiment [11], in [12] and in [13] was more than 100 µM throughout. Also, the TGI in [14], in [20], in experiment [15], in experiment [16], in [17] and in experiment [18] was more than 100 µM each time. This molecule also registered a TGI in experiment [19] of more than 100 µM.
For `CCC1=NC(N/N=C/c2ccco2)=N/C1=C\c1ccccc1O`, the TGI was more than 100 µM in experiment [1]; more than 100 µM in experiment [3]; 93.1 µM in experiment [4]; more than 100 µM in [5]; 98.9 µM in experiment [6]; more than 100 µM in experiment [7]. In addition, the TGI in experiment [8], in [9], in [10], in experiment [11], in [12] and in [13] was more than 100 µM each time. Moreover, the TGI in experiment [14] was more than 100 µM; in experiment [20], 70.4 µM; in [15], 49.3 µM; in experiment [16], more than 100 µM; in experiment [17], more than 100 µM; in [18] it was more than 100 µM. The TGI in experiment [19] was determined as 60.6 µM.
Take `CC(=O)Nc1ccc(Nc2cc(=O)[nH]c(=O)[nH]2)cc1`: the TGI in experiment [1], in [2], in [3], in experiment [4], in experiment [5] and in experiment [6] was more than 100 µM throughout. The TGI in experiment [8], in experiment [9], in experiment [10], in experiment [11], in experiment [12] and in [13] was more than 100 µM in each case. For the same molecule, the TGI in experiment [14] is more than 100 µM; in [16] it was more than 100 µM; in experiment [17], more than 100 µM; in [18] it was 37.4 µM; in experiment [19] it was more than 100 µM.
As for `O=P1(O)C=CC2(CCCC2)O1`, the TGI in [1], in experiment [2], in experiment [3], in experiment [4], in experiment [5] and in experiment [6] was more than 100 µM each time. For the same molecule, the TGI in [7], in [8], in experiment [9], in [10], in experiment [11] and in [12] was more than 100 µM in each case. Further, the TGI in experiment [13], in experiment [15], in experiment [16], in [17] and in [19] was more than 100 µM in each case.
Turning to `Cc1ccc2c3c1O[C@H]1c4[nH]c5ccccc5c4C[C@@]4(O)[C@@H](C2)N(C)CC[C@]314`, the TGI was determined as 32.9 µM in [1]; 33.6 µM in experiment [3]; 34.9 µM in experiment [4]; 30.1 µM in experiment [5]; 29.3 µM in experiment [6]; 40.4 µM in experiment [7]. Besides, the TGI amounted to 28.3 µM in experiment [8]; 35.8 µM in [9]; 25.6 µM in experiment [10]; 29.8 µM in [11]; 33.3 µM in [12]; 39.4 µM in [13]. Besides, the TGI turned out to be 23.1 µM in experiment [14]; 35 µM in [20]; 36 µM in [15]; 30.2 µM in experiment [16]; 29.6 µM in [17]; 36.7 µM in experiment [18]. In [19], this molecule gave a TGI of 30.7 µM.
As for `O=C(/C=C1\N=C(c2ccccc2)N(c2nc3ccc(Sc4ccccc4)cc3[nH]2)C1=O)/C=C/c1ccccc1`, the TGI was more than 100 µM in experiment [1]; 55.9 µM in experiment [2]; more than 100 µM in [3]; more than 100 µM in [4]; more than 100 µM in [5]; more than 100 µM in [6]. Moreover, the TGI is more than 100 µM in experiment [7]; 33.9 µM in experiment [8]; 67.9 µM in experiment [9]; 92.8 µM in [10]; more than 100 µM in experiment [11]; 33.6 µM in experiment [12]. Further, the TGI in experiment [13] is more than 100 µM; in [20] it was more than 100 µM; in experiment [15], 58.2 µM; in experiment [16], 30.6 µM; in experiment [17], more than 100 µM; in experiment [18], more than 100 µM. This molecule registered a TGI in experiment [19] of 54.1 µM.
In the case of `NNC(=O)CSc1nc2ccc(I)cc2c(=O)n1Cc1ccccc1`, the TGI in experiment [1] is 54.6 µM; in experiment [2], 50.4 µM; in experiment [3] it was 69.3 µM; in experiment [4], 69.3 µM; in [5] it was more than 100 µM; in experiment [7], 74.7 µM. The TGI is more than 100 µM in experiment [8]; more than 100 µM in experiment [9]; 44.8 µM in experiment [10]; 30.7 µM in [11]; more than 100 µM in experiment [12]; 48.6 µM in experiment [13]. The TGI in experiment [14] was 41.9 µM; in [20] it was 19 µM; in [15], 30.7 µM; in experiment [16], 53.2 µM; in [17], more than 100 µM; in experiment [18], 45.3 µM. This molecule also had a TGI in [19] of 61 µM.
`O=C(O)c1cc2ccccc2c(N=Nc2ccccc2)c1O`: the TGI was 40.1 µM in experiment [1]; 36 µM in experiment [2]; 60.1 µM in experiment [3]; more than 100 µM in experiment [4]; more than 100 µM in [5]; 26.6 µM in experiment [6]. The TGI in [7] is 56.1 µM; in [8], 35.5 µM; in experiment [9], 90.4 µM; in experiment [10] it was 54.8 µM; in experiment [11] it was more than 100 µM; in [12], 58.4 µM. The TGI in experiment [13] was 74.1 µM; in experiment [20] it was more than 100 µM; in experiment [15] it was 59.6 µM; in [16], 47.2 µM; in [18], more than 100 µM; in experiment [19], 33.1 µM.

The values are drawn from PubChem BioAssay (NCI).
